In PMC8362126, “Proteolysis Targeting Chimera (PROTAC) for Macrophage Migration Inhibitory Factor (MIF) Has Anti‐Proliferative Activity in Lung Cancer Cells” (Angewandte Chemie (International Ed. in English), 2021):
Where “and” joins values, the source holds several entries; their conditions need not be identical. Identical values can stand only once. Entries after “also recorded” stand apart in the source; their conditions may differ.

Key:
[1] = target: T1, MIF (Homo sapiens, UniProt P14174); experiment: MIF degradation in A549 cells, western-blot; format: cell-based; design: endogenous in cells; host or cells: A549 (ATCC CCL-185); details: A549 cells; for rescue of MD9 mediated MIF degradation: 2 hours pretreatment (1 100 µM, 3 50 µM, 4 50 µM, Bortezomib), then 10 µM MD9 12 h; for rescue of MD13 mediated MIF degradation: co-treatment (Bortezomib) or 1 hour pretreatment (3, 4) with MD13
T1 sequence (P14174 2-115 limits assumed): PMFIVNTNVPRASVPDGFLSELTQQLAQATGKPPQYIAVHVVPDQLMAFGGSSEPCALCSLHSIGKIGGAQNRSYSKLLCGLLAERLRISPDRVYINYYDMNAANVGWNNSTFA
Description: The concentration dependence of PROTAC MD13‐mediated induction of MIF degradation in A549 cells was investigated using western‐blot. […] The MIF levels were normalized to the vehicle treated control and plotted to the respective MD13 concentrations. This provided a DC50 of around 100 nM and a maximal degradation of around 90–95 % at concentrations higher than 1 μM (Figure 3 B). The DC50 of MD13 measured by ELISA assay was about 200 nM (Figure 3 C), which is in line with the result from western‐blot. […]
Cell lysates were prepared using the protocol described above. About 10−40 μg of total protein was mixed with the 4× Laemmli Loading Dye (250 mM Tris, pH 6.8, 40% glycerol, 5% SDS, 0.005% bromophenol blue, 4% β-mercaptoethanol) and heated at 95−100 °C for 5 min and loaded onto a 12% Bis-Tris gel (Bio-Rad Laboratories, #4561084) and proteins were separated at 120V. Afterwards, proteins were transferred to polyvinylidene fluoride (PVDF) membranes, subsequently non-specific antibody binding was blocked with 5% nonfat dry milk (BIO-RAD, #1706404) in TBST buffer and incubated overnight at 4 °C with one of the following primary antibodies: anti-MIF (1:1000, ThermoFisher, #PA5-27343 ) or anti-β-actin (1:10000 Cell Signalling, #8457). The membranes were further incubated with a goat anti-rabbit HRP-conjugated secondary antibody (1:2000, DAKO, p0448) for 2 h at room temperature. Proteins were visualized with an ECLTM Prime Western Blotting System (GE Healthcare #RPN2232). The immunoblot was generated by ChemiDoc MP Imaging Systems (Bio-Rad) and analyzed by the ImageJ software. […]
As a control, the same experiment was repeated and analyzed by a western-blot assay (Figure 3B). The potency estimated from the Western blot assay was 1 µM (Figure 3C), which is consistent with the result from the ELISA assay. The “Hook effect” […]

[2] = target: T1, MIF; experiment: MIF degradation in A549 cells, cell lysate-based ELISA; design: endogenous in cells; host or cells: A549 (ATCC CCL-185); details: for Dmax at 20 µM / degradation [%] 2 μM / degradation (%) 20 µM: vs DMSO, mean±SD n=3
Description: In addition, A549 cells have been successfully used for assessing activity of cereblon ligand‐based PROTACs previously.[42] Therefore, A549 is a suitable cell line for evaluating the effect of our putative MIF‐directed PROTACs MD1 to MD12 on MIF protein levels. The reduction in MIF levels were monitored in A549 cells that were treated with two different PROTAC concentrations (20 and 2 μM) for 12 h in order to estimate the dose dependency, which is important for PROTACs because of the Hook effect.[35] The MIF levels in cell lysates were analyzed using an enzyme‐linked immunosorbent assay (ELISA).
S3. ELISA screening of MIF protein level on MIF-directed PROTACs
Cell culture. Human A549 lung cancer cells (ATCCCCL-185) or HEK293 kidney […]
containing 10% (v/v) fetal bovine serum (FBS), 100 U/mL penicillin/streptomycin […]
ELISA. 7×10^5 A549 cells per well were plated in 6-well plates. The next day, cells were treated with a solution of compounds or the vehicle for 12 h. Subsequently, the culture medium was removed and cells were washed twice with cold PBS and collected after trypsin (0.5 mL) degestion. Cells were then lyzed in lysis buffer (150 mM NaCl, 50 mM Hepes pH 7.5, 5 mM EDTA, 0.1% (w/v) NP40) containing protease inhibitor cocktail (Roche, #11836153001) and resuspended vigourously. The supernatant was collected after spinning down at 16 000g at 4 °C for 30 min. The total protein concentration was determined with PierceTM BCA protein assay kit ( ThermoFisher , #23225). The protein concentration was normalized between samples. The relative MIF levels from 1µg total protein were determined by ELISA with the human MIF DuoSet ELISA kit according to the instructions of the manufacturer (R&D systems, #DY289).
Figure S1. Screening of compounds for MIF degradation activity by cell lysate -based ELISA.
A549 cells were treated with compounds at (A) 20 or (B) 2 µM for 12 h. Data was normalized […]
(1 picture or pasted object on this page, not shown here)

[3] = target: T1, MIF; experiment: MIF catalyzed 4-HPP tautomerization assay; format: biochemical; details: for IC50: 4-HPP conversion assay; for Ki: MIF catalyzed 4-HPP tautomerization, n=3
Description: S2. MIF Tautomerase activity IC50 study
The protocol for measuring inhibition of MIF tautomerase enzyme activity and enzyme kinetics was described previously.[8] Briefly, 180 µL of a 500 nM MIF solution in boric acid buffer (435 mM, pH 6.2) was mixed with 10 µL of a 20 mM EDTA solution in demiwater and 10 µL of a solution of the desired compound dissolved in DMSO or blanc DMSO. This mixture was pre-incubated at room temperature for 10 min. Next, 50 µL of this mixture was mixed with 50 µL of a 1 mM 4-HPP solution in ammonium acetate buffer (50 mM, pH 6.0). Subsequently, MIF tautomerase activity was monitored by measuring the increase of UV absorbance at 306 nm over time. MIF tautomerase activity in the presence a blank DMSO dilution was set to 100% enzyme activity. Non-catalyzed conversion of the substrate in absence of MIF was set to 0%.
Data from the first three minutes were used to calculate the initial velocities. All experiments were repeated three times and calculations were performed with the program GraphPad Prism.
Table S1. 4-HPP conversion assay results of MIF PROTACs
(also on this page, place not known: p rotocol previously. subs trate log [MD-1] (10^-6 M) Activity of MIF tautomerase(%) -2 -1 0 1 2 0 50 100 log [MD-2] (10^-6 M) Activity of MIF tautomerase(%) -2 -1 0 1 2 0 50 100)

[4] = target: T1, MIF; experiment: MIF degradation in A549 cells, cell lysate-based ELISA; design: endogenous in cells; host or cells: A549 (ATCC CCL-185); details: 12 h, vs DMSO, mean±SD n=3

## CC(C)C[C@H](NC(=O)[C@H](Cc1ccccc1)NC(=O)c1cnccn1)B(O)O [Bortezomib]
[1]
  rescue of MD9 mediated MIF degradation: considerably decreased; also recorded: rescued
  rescue of MD13 mediated MIF degradation: inhibited the degradation of MIF
[1]; listed as bortezomib
  rescue of MD13 mediated MIF degradation: able to abolish the MD13 triggered degradation

## O=C1CCC(N2C(=O)c3cccc(NCc4cn(CC(=O)Nc5ccc(-c6cc7ccc(O)cc7oc6=O)cc5)nn4)c3C2=O)C(=O)N1 (centres unmarked) [MD1]
[2]; A549, 12 h, A549 cells, 12 h
  Dmax at 20 µM: 16 ± 7%
[2]; A549 cells, 12 h
  degradation [%] 2 μM: n.s.
[3]
  IC50: 262 ± 35 nM
  Ki: 175 ± 23 nM

## O=C1CCC(N2C(=O)c3cccc(NC(=O)CCc4cn(CC(=O)Nc5ccc(-c6cc7ccc(O)cc7oc6=O)cc5)nn4)c3C2=O)C(=O)N1 (centres unmarked) [MD2]
[2]; A549, 12 h, A549 cells, 12 h
  Dmax at 20 µM: 31 ± 3%
[2]; A549 cells, 12 h
  degradation [%] 2 μM: n.s.
[3]
  IC50: 288 ± 25 nM
  Ki: 192 ± 17 nM

## O=C1CCC(N2C(=O)c3cccc(NC(=O)CCCc4cn(CC(=O)Nc5ccc(-c6cc7ccc(O)cc7oc6=O)cc5)nn4)c3C2=O)C(=O)N1 (centres unmarked) [MD3]
[2]; A549, 12 h, A549 cells, 12 h
  Dmax at 20 µM: 22 ± 9%
[2]; A549 cells, 12 h
  degradation [%] 2 μM: n.s.
[3]
  IC50: 182 ± 16 nM
  Ki: 121 ± 11 nM

## O=C1CCC(N2C(=O)c3cccc(NC(=O)CCCCc4cn(CC(=O)Nc5ccc(-c6cc7ccc(O)cc7oc6=O)cc5)nn4)c3C2=O)C(=O)N1 (centres unmarked) [MD4]
[2]; A549, 12 h, A549 cells, 12 h
  Dmax at 20 µM: 50 ± 3%
[2]; A549 cells, 12 h
  degradation [%] 2 μM: n.s.
[3]
  IC50: 233 ± 26 nM
  Ki: 155 ± 17 nM

## O=C1CCC(N2C(=O)c3cccc(NC(=O)CCCCc4cn(CCC(=O)Nc5ccc(-c6cc7ccc(O)cc7oc6=O)cc5)nn4)c3C2=O)C(=O)N1 (centres unmarked) [MD5]
[2]; A549, 12 h, A549 cells, 12 h
  Dmax at 20 µM: 58 ± 8%
[2]; A549 cells, 12 h
  degradation [%] 2 μM: n.s.
[3]
  IC50: 895 ± 82 nM
  Ki: 597 ± 55 nM

## O=C1CCC(N2C(=O)c3cccc(NC(=O)Cc4ccc(-n5cc(CCCC(=O)Nc6ccc(-c7cc8ccc(O)cc8oc7=O)cc6)nn5)cc4)c3C2=O)C(=O)N1 (centres unmarked) [MD6]
[2]; A549 cells, 12 h
  degradation [%] 2 μM: n.s.
  degradation (%) 20 µM: n.s. and did not trigger MIF reduction
[3]
  IC50: 1500 ± 130 nM
  Ki: 999 ± 87 nM

## O=C1CCC(N2C(=O)c3cccc(NCCCCC(=O)Nc4ccc(N5Cc6ccc(O)cc6OC5=O)cc4)c3C2=O)C(=O)N1 (centres unmarked) [MD7]
[2]; A549 cells, 12 h
  degradation [%] 2 μM: n.s.
  Dmax at 20 µM: 61 ± 7%
[3]
  IC50: 82 ± 4 nM
  Ki: 55 ± 3 nM

## O=C(CCCCNc1cccc2c1C(=O)N(C1CCC(=O)NC1=O)C2=O)NCc1ccc(N2Cc3ccc(O)cc3OC2=O)cc1 (centres unmarked) [MD8]
[2]; A549 cells, 12 h
  degradation [%] 2 μM: 21±7%
  Dmax at 20 µM: 51 ± 4%
[3]
  IC50: 129 ± 8 nM
  Ki: 86 ± 5 nM

## O=C1CCC(N2C(=O)c3cccc(NCCCCCCC(=O)Nc4ccc(N5Cc6ccc(O)cc6OC5=O)cc4)c3C2=O)C(=O)N1 (centres unmarked) [MD9]
[2]; A549, 12 h, A549 cells, 12 h
  Dmax at 20 µM: 92 ± 10%
[2]; A549, A549 cells, 12 h, ELISA, read-out: maximal degradation
  Dmax: > 90%
[2]; A549 cells, 12 h
  degradation [%] 2 μM: 55±4%
[2]; A549 cells, 12 h, ELISA, read-out: half-maximal degradation concentration (DC50)
  DC50: 1500 nM and ~1500 nM
[2]; A549 cells, at 20 μM, ELISA and western-blot
  Hook effect: Hook effect
[3]
  IC50: 76 ± 4 nM
  Ki: 51 ± 3 nM
[1]; 12 h, western-blot, read-out: DC50 (potency estimated from western blot)
  DC50: 1000 nM and ~1500 nM
[1]; MD9 at 10 μM
  time of treatment after which MIF degradation becomes visible: 3 h
[4]
  degradation [%] 0.2 μM: 24±4%

## O=C1CCC(N2C(=O)c3cccc(NCc4cn(CCC(=O)Nc5ccc(N6Cc7ccc(O)cc7OC6=O)cc5)nn4)c3C2=O)C(=O)N1 (centres unmarked) [MD10]
[2]; A549 cells, 12 h
  degradation [%] 2 μM: 55±9%
[3]
  IC50: 147 ± 13 nM
  Ki: 98 ± 9 nM

## O=C1CCC(N2C(=O)c3cccc(NC(=O)CCCc4cn(CCC(=O)Nc5ccc(N6Cc7ccc(O)cc7OC6=O)cc5)nn4)c3C2=O)C(=O)N1 (centres unmarked) [MD11]
[2]; A549 cells, 12 h
  degradation [%] 2 μM: n.s.
  degradation (%) 20 µM: 40±8%
[3]
  IC50: 143 ± 11 nM
  Ki: 95 ± 7 nM

## O=C(Cc1ccc(N2Cc3ccc(O)cc3OC2=O)cc1)NCc1cn(-c2ccc(CC(=O)Nc3cccc4c3C(=O)N(C3CCC(=O)NC3=O)C4=O)cc2)nn1 (centres unmarked) [MD12]
[2]; A549, 12 h, A549 cells, 12 h
  Dmax at 20 µM: 38 ± 6%
[2]; A549 cells, 12 h
  degradation [%] 2 μM: n.s.
[3]
  IC50: 138 ± 6 nM
  Ki: 92 ± 4 nM

## O=C1CCC(N2C(=O)c3cccc(NCCCCCCCCCC(=O)Nc4ccc(N5Cc6ccc(O)cc6OC5=O)cc4)c3C2=O)C(=O)N1 (centres unmarked) [MD14]
[2]; A549 cells, 12 h
  degradation [%] 2 μM: 64±2%
[3]
  IC50: 97 ± 6 nM
  Ki: 65 ± 4 nM
[4]
  degradation [%] 0.2 μM: 51±2%

## COC(=O)CC1CC(c2ccc(O)cc2)=NO1 (centres unmarked) [compound 1, ISO 1]
[1]
  rescue of MD9 mediated MIF degradation: partial to complete rescue; also recorded: rescued

## COc1ccc(-c2cc3ccc(O)cc3oc2=O)cc1 [compound 2, reference compound]
[3]
  Ki: 370 ± 30 nM
